# Data: US20090082353A1, “TREATMENT OF EPILEPSY WITH NON-IMIDAZOLE ALKYLAMINES HISTAMINE H3-RECEPTOR LIGANDS” (priority 2005, published 2009)
# Tests used:
# H3-receptor = conditions: cited from earlier work
# [1] = system: pentetrazole-induced convulsions; conditions: mice and rats; cited from earlier work
# [2] = system: electrically-driven convulsions; conditions: in vivo; cited from earlier work
# [3] = system: intrahippocampal kainate-induced temporal lobe seizures; conditions: mice; cited from earlier work
# [4] = system: amygdaloid-kindled seizures; conditions: rats; cited from earlier work
# seizure susceptibility = conditions: mice; cited from earlier work
# convulsions = conditions: rodents; cited from earlier work
# [5] = system: GAERS (Genetic Absence Epilepsy, Rat from Strasbourg); experiment: GAERS rat genetic model of absence epilepsy, EEG spike-and-wave discharges; assay type: in vivo
# Method: In a rat genetic model of human epilepsy (particularly of “absence” epilepsy in children and adults), the GAERS (Genetic Absence Epilepsy, Rat from Strasbourg; Vergnes et al, Epilepsy Res. 1989; 4, 8-13), 3-(4-Chlorophenyl)propyl 3-piperidinopropyl ether diminished by up to 77% the number and duration of spike-and-wave discharges, i.e. characteristic EEG changes of the disorder, at a dose of 20 mg/kg. In this strain of Wistar rats with spontaneous generalized non convulsive seizures (absence seizures), seizures are characterized by bilateral and synchronous spike-and-wave discharges (7-9 Hz) on EEG, concomitant with behavioural arrests. These discharges generally last about 20 sec and occur spontaneously every minute when the animals are in a state of quiet wakefulness. Pharmacological reactivity of this model is similar to human absence-epilepsy (e.g., valproate and ethosuccimide are protective). After a recovery period, implanted rats (cortical and hippocampal EEG electrodes) were recorded over a 20 min reference period. Then, 3-(4-Chlorophenyl)propyl 3-piperidinopropyl ether (5 or 20 mg/kg, i.p.) or saline were administered (n=8 per group) and the EEG recording was continued for 60 min. Rats received the alternate treatment one week later. Cumulated duration of absence-seizures was measured by 20 min periods during the two sessions.
# [6] = system: clonic convulsions induced by pentetrazole; experiment: clonic convulsions induced by pentetrazole in mice; assay type: in vivo
# Method: The inventors also assessed the effects of one of the non-imidazole compound they described in WO 00/06254, BF2-649 (3-(4-chlorophenyl)propyl 3-piperidinopropyl ether) at 10 mg/kg on clonic convulsions induced by pentetrazole in mice.
# [7] = system: photo paroxymal response (PPR); experiment: photosensitivity model, intermittent photic stimulation (IPS) in epileptic patients; assay type: in vivo, human
# Source text: Photosensitivity, defined as a generalized epileptiform reaction on intermittent photic stimulation (IPS) outlasting the stimulus train is found in about 5% of epileptic patients (Kasteleijn-Nolst trenité DGA. Acta Neurol Scand, 1989; 80:1-149). Unlike most other epilepsies, photosensitive epilepsy is a reflex epilepsy and epileptiform discharges can be evoked at any time by IPS in the laboratory. By determination of both upper and lower sensitivity limits (frequencies per flash) a so-called photosensitivity range can be determined. This range is related to liability of seizures in daily life of the patient. This photosensitivity range is relatively stable within a patient and can be diminished of abolished by antiepileptic medication. […] Furthermore, it is possible to explore the time, onset and duration of the effect, a dose-response relationship and to document serum concentration-time profiles of the study drug. […] The single blind design was chosen in order to reduce comparison bias of IPS response observed after treatment with 3-(4-Chlorophenyl)propyl 3-piperidinopropyl ether administration at Day 2 with placebo evaluation at Day 1. Five single doses will be studied (10 to 90 mg). the margin of safety was determined from the nonclinical and clinical experiments with 3-(4-Chlorophenyl)propyl 3-piperidinopropyl ether.
# [8] = system: high-frequency cortical rhythms (EEG); experiment: EEG rhythms in healthy human volunteers; assay type: in vivo
# Source text: In healthy human volunteers, orally-administered 3-(4-Chlorophenyl)propyl 3-piperidinopropyl ether dose-dependently elicited electroencephalographic changes (i.e. enhanced high-frequency cortical rhythms at the expense of low-frequency rhythms) which are regarded as predictory of facilitated thalamo-cortical activation and inhibition of pathological synchronisation underlying spike-wave discharges in epileptic states (Avanzini et al, Clinical Neurophysiol, 2000, 111, Suppl 2, S19). Groups of 6 male subjects received 40-120 mg 3-(4-Chlorophenyl)propyl 3-piperidinopropyl ether orally.
# [9] = system: intrahippocampal kainate-induced temporal lobe seizures; experiment: intrahippocampal kainate-induced temporal lobe seizures in mice, EEG; assay type: in vivo
# Method: Unilateral injection of kainic acid (1 nmol in 50 nl) into the dorsal hippocampus in mice induces a non-convulsive status that results in spontaneous recurrent focal seizures after 2-3 weeks. Seizures (5 to 20 times per hour in quiet mice) are characterized by a behavioural arrest and/or stereotypes, concomitant with spike and poly-spike discharges recorded in the injected hippocampus. […] This model reproduces the behavioural, EEG, pharmacological and histological characteristics of mesial temporal lobe epilepsy, a form of epilepsy which is often drug-resistant in humans. After a recovery period, implanted mice (for EEG recordings) were injected with kainic acid. They were EEG recorded at least 3 weeks after injection for selection of animals with consistent hippocampal seizure. Then, after a 20 min reference recording period, selected mice received either 3-(4-Chlorophenyl)propyl 3-piperidinopropyl ether (10 or 20 mg/kg i.p.) or saline and the recording was continued for 60 min. Treatments were given in a counter balanced order (after a one week washout period between two sessions).
# [10] = system: pharmacoresistant epilepsy; experiment: clinical study in pharmacoresistant epileptic patients; assay type: in vivo, human; conditions: 20 to 40 mg/day during 3 months
# Method: A clinical study has confirmed the efficiency of the compounds of the invention in treating pharmacoresistant epilepsy. Epileptic patients were enrolled. Those patients suffered from highly frequent seizures (generally more than 10 seizures monthly) despite their treatment consisting in one or more usual anti-epileptic drug of various classes (barbiturics, depakine, lamotrigine, gabapenine, benzodiazepines . . . ). Patients were administered with 3-(4-Chlorophenyl)propyl 3-piperidinopropyl ether at doses comprised between 20 and 40 mg/day during 3 months. Seizures frequency was reduced by 50% in a significant number of patients.
# [11] = system: GAERS (Genetic Absence Epilepsy, Rat from Strasbourg); conditions: in vivo; cited from earlier work
smiles,measurement,setting,value
CNCCc1ccccn1 [betahistine],potency of H3-receptor antagonism,H3-receptor,only very low potency
C(=NC12CC3CC(CC(C3)C1)C2)N1CCC(c2cnc[nH]2)CC1.Cl.Cl [AQ0145],effect on pentetrazole-induced convulsions,[1],prevent pentetrazole-induced convulsions
same,effect on electrically-driven convulsions,[2],reduce electrically-driven convulsions
c1ccc(C2(N3CCCCC3)CCCCC2)cc1 [phencyclidine],potency of H3-receptor antagonism,H3-receptor,only very low potency
NC(=O)N1c2ccccc2C=Cc2ccccc21 [carbamazepine],effect of antiepileptic drugs on kainate-induced seizures,[3],without significant effects
NC(=NCc1ccc(Cl)cc1)SCCCc1cnc[nH]1 [clobenpropit],effect on pentetrazole-induced convulsions,[1],prevent pentetrazole-induced convulsions
same,effect on electrically-driven convulsions,[2],reduce electrically-driven convulsions
S=C(NC1CCCCC1)N1CCC(c2cnc[nH]2)CC1 [thioperamide],effect on pentetrazole-induced convulsions,[1],prevent pentetrazole-induced convulsions
same,effect on electrically-driven convulsions,[2],reduce electrically-driven convulsions
same,effect on amygdaloid-kindled seizures,[4],ineffective
same,effect on seizure susceptibility,seizure susceptibility,failed to affect seizure susceptibility
O=C1NC(=O)C(c2ccccc2)(c2ccccc2)N1 [phenyloin],effect of antiepileptic drugs on kainate-induced seizures,[3],without significant effects
NCCc1c[nH]cn1 [histamine],protection from convulsions,convulsions,tend to protect rodents from convulsions
Cc1nc(N)nc(N)c1-c1ccc(Cl)c(Cl)c1 [metoprine],protection from convulsions,convulsions,tend to protect rodents from convulsions
Clc1ccc(CCCOCCCN2CCCCC2)cc1 [3-(4-chlorophenyl)propyl 3-piperidinopropyl ether],diminution of number and duration of spike-and-wave discharges,"[5]; 20 mg/kg i.p., GAERS rats",up to 77%
same,spike and wave discharges at 20 min,"[5]; 20 mg/kg, 20 min",total suppression
same,spike and wave discharges at 1 h,"[5]; 20 mg/kg, 1 h",nearly total suppression
same,modification (enhancement) of anticonvulsive properties of established antiepileptic drugs,"[6]; 10 mg/kg with carbamazepine, sodium valproate, phenyloin, diazepam, Phenobarbital",did not modify
same,preventing the convulsion (latency or duration),"[6]; 10 mg/kg, mice, pentetrazole",ineffective
same,suppression of PPR,"[7]; 20 mg, four patients",one patient showed total suppression
same,duration of total PPR suppression,"[7]; 20 mg, one patient",6 h
same,suppression of PPR,"[7]; 40 mg, four patients",one showed partial suppression of PPR and one total suppression of PPR
same,duration of effect,[7]; 60 mg,more than 8 hours
same,onset of effect post administration,[7]; 60 mg,1 to 2 h
same,clinical response,"[7]; 60 mg, four patients",clinical response in all four patients
same,total suppression of PPR,"[7]; 60 mg, four patients",two patients showed total suppression of PPR
same,longest duration of effect,"[7]; 60 mg, one patient",up to 36 hours
same,tolerability of addition to conventional antiepileptic drugs,"[7]; add-on to Depakine, Tegretol, Keppra, Lamictal",well tolerated
same,EEG changes triggered by repetitive photic stimulation,"[7]; single dose, photosensitive patients",dose-dependently suppressed
same,EEG response after repeated dosing,[8]; 40 mg for 1 week,enhancement of the response observed on single administration
same,fast EEG activities,"[8]; 40-120 mg orally, single dose, anterior leads, dose-dependent",significant enhancement of fast activities
same,frequency of discharges,"[9]; 10 or 20 mg/kg i.p., mice",reduced significantly
same,modification of interictal EEG profiles (non specific sedative effect),"[9]; 10 or 20 mg/kg i.p., mice",without any significant modification
same,"hippocampal seizures, number and duration",[9]; kainate mice,reducing both the number and duration of seizures
same,tolerability,[10],perfectly well tolerated
same,reduction of seizures frequency,"[10]; add-on, in a significant number of patients",50%
CCC1(C)CC(=O)NC1=O (stereo not shown) [ethosuccimide],pharmacological reactivity of the GAERS model,[11],protective
CN(C)CCCSC(=N)N [dimaprit],potency of H3-receptor antagonism,H3-receptor,only very low potency
CC[C@@H](C(N)=O)N1CCCC1=O [levetiracetam],effect of antiepileptic drugs on kainate-induced seizures,[3],without significant effects
N[C@@H](Cc1c[nH]cn1)C(=O)O [L-histidine],protection from convulsions,convulsions,tend to protect rodents from convulsions
